Reference: ChEMBL document CHEMBL3885861, “Open TG-GATES”

Organism: Rattus norvegicus
Experiment: Open TG-GATES - Regimen: Daily Repeat
Format: toxicity, organism-based, Sprague-Dawley
Set-up: regimen Daily Repeat, gender Male, age 6 weeks
Conditions: in vivo, po, 0 mg/kg, route gavage, dose level Control; for APTT / Bas / Eos / Fbg / Hb / Ht / Lym / MCH / MCHC / MCV / Mono / Neu / PT / Plat / RBC / Ret / WBC: tissue Blood; for KIDNEY_L / KIDNEY_R / KIDNEY_TOTAL: tissue Kidney; for LIVER: tissue Liver; for A/G / ALP / ALT / AST / BUN / CRE / Ca / Cl / DBIL / GLC / IP / K / LDH / Na / PL / RALB / TBIL / TC / TG / TP / gamma-GTP: tissue Plasma

## CC(=O)[C@@]1(O)CC[C@H]2[C@@H]3C=C(Cl)C4=CC(=O)CC[C@]4(C)[C@H]3CC[C@@]21C [CHLORMADINONE]
72 h, time 3 day
  TERMINAL_BW: 240.6 g
  APTT: 23.6 s
  Bas: 0%
  Eos: 1%
  Fbg: 295 mg/dL
  Hb: 13.3 g/dL
  Ht: 40.9%
  Lym: 77.6%
  MCH: 20.3 pg
  MCHC: 32.6%
  MCV: 62.4 fL
  Mono: 2.6%
  Neu: 18.4%
  PT: 15.6 s
  Plat: 116.7 x10_4/uL
  RBC: 656 x10_4/ul
  Ret: 6.4%
  WBC: 122.2 x10_2/uL
  KIDNEY_L: 1 g
  KIDNEY_R: 1 g
  KIDNEY_TOTAL: 2 g
  LIVER: 10.8 g
  A/G: 1.2
  ALP: 1828 IU/L
  ALT: 43.8 IU/L
  AST: 82 IU/L
  BUN: 18.8 mg/dL
  CRE: 0.2 mg/dL
  Ca: 10.8 mg/dL
  Cl: 105.8 meq/L
  DBIL: 0 mg/dL
  GLC: 190.6 mg/dL
  IP: 7 mg/dL
  K: 4.3 meq/L
  LDH: 300.6 IU/L
  Na: 141.6 meq/L
  PL: 151.2 mg/dL
  RALB: 3 g/dL
  TBIL: 0.008 mg/dL
  TC: 72.2 mg/dL
  TG: 114.8 mg/dL
  TP: 5.4 g/dL
  gamma-GTP: 1.4 IU/L
[…], time 7 day
  TERMINAL_BW: 267.1 g
  APTT: 24.1 s
  Bas: 0%
  Eos: 0.8%
  Fbg: 337 mg/dL
  Hb: 13.8 g/dL
  Ht: 41.5%
  Lym: 80.8%
  MCH: 20.3 pg
  MCHC: 33.1%
  MCV: 61.1 fL
  Mono: 2.2%
  Neu: 15.2%
  PT: 15.6 s
  Plat: 112.3 x10_4/uL
  RBC: 680 x10_4/ul
  Ret: 5.6%
  WBC: 129.9 x10_2/uL
  KIDNEY_L: 1.1 g
  KIDNEY_R: 1.1 g
  KIDNEY_TOTAL: 2.2 g
  LIVER: 12.3 g
  A/G: 1.2
  ALP: 1354.8 IU/L
  ALT: 39.4 IU/L
  AST: 67.8 IU/L
  BUN: 18.8 mg/dL
  CRE: 0.2 mg/dL
  Ca: 10.8 mg/dL
  Cl: 105.8 meq/L
  DBIL: 0 mg/dL
  GLC: 200.8 mg/dL
  IP: 7 mg/dL
  K: 4.2 meq/L
  LDH: 158.4 IU/L
  Na: 140.6 meq/L
  PL: 147.2 mg/dL
  RALB: 3.1 g/dL
  TBIL: 0.01 mg/dL
  TC: 76 mg/dL
  TG: 114.8 mg/dL
  TP: 5.7 g/dL
  gamma-GTP: 2.2 IU/L
[…], time 14 day
  TERMINAL_BW: 325.5 g
  APTT: 23.6 s
  Bas: 0%
  Eos: 0.8%
  Fbg: 320.6 mg/dL
  Hb: 14 g/dL
  Ht: 41.9%
  Lym: 80.8%
  MCH: 19.9 pg
  MCHC: 33.5%
  MCV: 59.5 fL
  Mono: 2.2%
  Neu: 15.2%
  PT: 15.4 s
  Plat: 100.4 x10_4/uL
  RBC: 704 x10_4/ul
  Ret: 5.2%
  WBC: 126.8 x10_2/uL
  KIDNEY_L: 1.2 g
  KIDNEY_R: 1.2 g
  KIDNEY_TOTAL: 2.5 g
  LIVER: 14.3 g
  A/G: 1.1
  ALP: 1391 IU/L
  ALT: 37.4 IU/L
  AST: 64.6 IU/L
  BUN: 17.6 mg/dL
  CRE: 0.2 mg/dL
  Ca: 10.6 mg/dL
  Cl: 107 meq/L
  DBIL: 0 mg/dL
  GLC: 188 mg/dL
  IP: 6.6 mg/dL
  K: 4 meq/L
  LDH: 156.6 IU/L
  Na: 142.2 meq/L
  PL: 137.4 mg/dL
  RALB: 3 g/dL
  TBIL: 0.016 mg/dL
  TC: 69.6 mg/dL
  TG: 112.2 mg/dL
  TP: 5.7 g/dL
  gamma-GTP: 2.2 IU/L
[…], time 28 day
  TERMINAL_BW: 410.9 g
  APTT: 24.8 s
  Bas: 0%
  Eos: 0.8%
  Fbg: 325 mg/dL
  Hb: 15.2 g/dL
  Ht: 44%
  Lym: 82.2%
  MCH: 19.5 pg
  MCHC: 34.4%
  MCV: 56.5 fL
  Mono: 2%
  Neu: 14.2%
  PT: 15.5 s
  Plat: 100.5 x10_4/uL
  RBC: 779 x10_4/ul
  Ret: 3%
  WBC: 118.3 x10_2/uL
  KIDNEY_L: 1.4 g
  KIDNEY_R: 1.4 g
  KIDNEY_TOTAL: 2.9 g
  LIVER: 17.2 g
  A/G: 1
  ALP: 988 IU/L
  ALT: 44.4 IU/L
  AST: 73.4 IU/L
  BUN: 21.6 mg/dL
  CRE: 0.2 mg/dL
  Ca: 10.6 mg/dL
  Cl: 103.8 meq/L
  DBIL: 0 mg/dL
  GLC: 201.4 mg/dL
  IP: 6.6 mg/dL
  K: 4.4 meq/L
  LDH: 217.4 IU/L
  Na: 141.2 meq/L
  PL: 131 mg/dL
  RALB: 3.1 g/dL
  TBIL: 0.01 mg/dL
  TC: 63.2 mg/dL
  TG: 112.4 mg/dL
  TP: 6.3 g/dL
  gamma-GTP: 2.2 IU/L
